This experiment deals with T1, MAP3K2 (Homo sapiens, UniProt Q9Y2U5).
T1 sequence (Q9Y2U5 1-619): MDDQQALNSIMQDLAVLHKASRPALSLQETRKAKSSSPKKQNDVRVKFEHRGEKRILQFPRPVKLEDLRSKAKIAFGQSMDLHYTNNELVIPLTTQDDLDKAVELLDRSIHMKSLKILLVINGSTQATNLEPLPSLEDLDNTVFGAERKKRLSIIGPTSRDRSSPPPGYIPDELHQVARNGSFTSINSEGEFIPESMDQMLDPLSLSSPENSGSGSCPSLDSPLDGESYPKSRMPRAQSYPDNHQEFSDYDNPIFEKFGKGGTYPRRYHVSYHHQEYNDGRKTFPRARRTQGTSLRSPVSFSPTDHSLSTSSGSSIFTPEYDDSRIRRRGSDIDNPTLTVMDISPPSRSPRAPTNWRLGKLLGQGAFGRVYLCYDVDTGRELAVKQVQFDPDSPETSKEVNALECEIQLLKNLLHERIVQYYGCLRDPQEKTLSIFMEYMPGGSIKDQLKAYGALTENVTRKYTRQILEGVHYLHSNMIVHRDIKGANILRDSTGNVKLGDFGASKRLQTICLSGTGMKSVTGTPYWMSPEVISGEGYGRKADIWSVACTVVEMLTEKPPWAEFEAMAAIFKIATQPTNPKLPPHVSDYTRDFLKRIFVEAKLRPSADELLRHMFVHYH
The experiment in a line: Kinobeads competition binding, HL60 cell lysate. Details: endogenous in cells; host or cells: HL60 cell lysate. Particulars: 10 μM free compound. How it is done:
To one aliquot of cell lysate 10 μM of the free compound (FIG. 3, CZC31326) was added and allowed to bind to proteins in the lysate. Then the affinity matrix with the immobilized compound (Example 1) was added to capture proteins that were not interacting with the previously added free compound. Beads were separated from the lysate and bead bound proteins were eluted in SDS sample buffer and subsequently separated by SDS-Polyacrylamide gel electrophoresis (FIG. 4). Suitable gel bands were cut out and subjected to in-gel proteolytic digestion with trypsin. The second lysate aliquot was processed identically, however no free compound was added (DMSO solvent control). Peptides originating from samples 1 and 2 were labeled with iTRAQ reagents (iTRAQ 114 and iTRAQ 117) and the combined samples were analyzed with a nano-flow liquid chromatography system coupled online to a tandem mass spectrometer (LC-MS/MS) experiment followed by iTRAQ reporter ion quantification in the MS/MS spectra (Ross et al., 2004. Mol. Cell. Proteomics 3(12):1154-1169). Further experimental protocols can be found in WO2006/134056 and a previous publication (Bantscheff et al., 2007. Nature Biotechnology 25, 1035-1044). Sepharose-beads with the immobilized compound (100 μl beads per pull-down experiment) were equilibrated in lysis buffer and incubated with a cell lysate sample containing 50 mg of protein on an end-over-end shaker (Roto Shake Genie, Scientific Industries Inc.) for 2 hours at 4° C. […] The iTRAQ reagents are a set of multiplexed, amine-specific, stable isotope reagents that can label peptides on amino groups in up to four different biological samples enabling simultaneous identification and quantitation of peptides. […] Relative protein quantitation was performed using peak areas of iTRAQ reporter ion signals essentially as described in an earlier publication (Bantscheff et al., 2007. Nature Biotechnology 25, 1035-1044).

The results in this text go back to patent US20120270237A9, “METHODS FOR THE IDENTIFICATION OF KINASE INTERACTING MOLECULES AND FOR THE PURIFICATION OF KINASE PROTEINS” (Cellzone AG, priority 2009, published 2012).

With `CS(=O)(=O)Nc1ccccc1Nc1nc(Nc2cccc(OCCN)c2)ncc1Cl` [CZC31326, N-(2-(2-(3-(2-aminoethoxy)phenylamino)-5-chloropyrimidin-4-ylamino)phenyl)methanesulfonamide], at 10 µM the inhibition was 96.3%.
